This note sets out measurements from publication PMC3486926 (Journal of the American Chemical Society, 2012).

The assay addresses LmbR (C-His6-LmbR) (Streptomyces lincolnensis, UniProt Q54372). The experiment in a line: HPLC with charged aerosol detection, ESI-MS of product. Type of assay: biochemical. The note with it: C5 acceptor, 10 mM; co-substrate F6P 10 mM.

With `O=P(O)(O)OC[C@H]1OC(O)[C@H](O)[C@H]1O` (stereo partly drawn) [8b, D-xylose 5-phosphate], the “HPLC with charged aerosol detection, ESI-MS of product” value is “LmbR can accept both R5P (8a) and X5P (8b) as the C5 substrate”.

Regarding `O=P(O)(O)OC[C@H]1OC(O)[C@H](O)[C@@H]1O` (stereo partly drawn) [8a, D-ribose 5-phosphate], the “HPLC with charged aerosol detection, ESI-MS of product” value was “LmbR can accept both R5P (8a) and X5P (8b) as the C5 substrate”.
